biological target: T1, purified human HDAC6 (Homo sapiens, UniProt Q9UBN7); test: HDAC6 Enzyme Assay; format: biochemical; conditions: bin: greater than 500 nM and less than 1 μM (lower bound in nM, upper bound in μM)
T1 construct: purchased BPS Bioscience 5006
T1 sequence (Q9UBN7 1-1215): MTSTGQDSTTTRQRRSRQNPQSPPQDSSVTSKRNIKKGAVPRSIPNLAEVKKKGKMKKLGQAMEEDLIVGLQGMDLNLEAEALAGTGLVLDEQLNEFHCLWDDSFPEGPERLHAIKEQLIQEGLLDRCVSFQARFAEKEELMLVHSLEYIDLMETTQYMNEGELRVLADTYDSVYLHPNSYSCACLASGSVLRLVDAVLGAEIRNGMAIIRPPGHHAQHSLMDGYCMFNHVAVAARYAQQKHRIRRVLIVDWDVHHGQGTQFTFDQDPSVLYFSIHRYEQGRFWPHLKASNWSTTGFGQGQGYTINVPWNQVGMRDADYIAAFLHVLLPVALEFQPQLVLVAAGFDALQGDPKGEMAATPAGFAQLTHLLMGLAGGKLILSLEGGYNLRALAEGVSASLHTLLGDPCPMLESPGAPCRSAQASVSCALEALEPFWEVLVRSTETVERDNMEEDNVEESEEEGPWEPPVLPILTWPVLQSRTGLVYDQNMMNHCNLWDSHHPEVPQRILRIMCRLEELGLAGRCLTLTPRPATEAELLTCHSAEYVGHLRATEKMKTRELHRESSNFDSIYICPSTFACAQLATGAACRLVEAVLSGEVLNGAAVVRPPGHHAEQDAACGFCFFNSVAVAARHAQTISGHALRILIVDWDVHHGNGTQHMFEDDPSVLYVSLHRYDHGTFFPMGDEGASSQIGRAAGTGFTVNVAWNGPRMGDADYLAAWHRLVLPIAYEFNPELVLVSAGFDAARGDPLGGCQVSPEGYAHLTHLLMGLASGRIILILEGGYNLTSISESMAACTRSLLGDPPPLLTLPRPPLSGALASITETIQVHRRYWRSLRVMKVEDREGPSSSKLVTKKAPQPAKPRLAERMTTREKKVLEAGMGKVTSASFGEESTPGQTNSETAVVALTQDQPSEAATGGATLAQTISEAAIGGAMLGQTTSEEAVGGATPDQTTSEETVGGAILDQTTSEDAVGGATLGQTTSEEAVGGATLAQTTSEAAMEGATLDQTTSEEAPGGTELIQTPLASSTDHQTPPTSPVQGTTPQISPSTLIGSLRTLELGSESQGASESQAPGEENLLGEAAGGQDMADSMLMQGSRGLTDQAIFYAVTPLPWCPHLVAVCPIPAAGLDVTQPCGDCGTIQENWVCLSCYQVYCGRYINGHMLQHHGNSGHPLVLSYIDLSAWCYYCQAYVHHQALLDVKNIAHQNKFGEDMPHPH
Method in brief: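 Deacetylated product quantified after trypsin digestion as released AMC (340/460 nm), following a 1 h, 30 °C reaction of human HDAC6 with Ac-RGK(Ac)-AMC peptide, quenched by trichostatin A. IC50 derived from DMSO-normalized curves.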

IC50 | Compound
500 to 1000 nM | Cc1nc(C(=O)NC(C)c2cccc(C(=O)NO)c2)cs1 (stereo not drawn) [Compound I-29, N-(1-{3-[(hydroxyamino)carbonyl]phenyl}ethyl)-2-methyl-1,3-thiazole-4-carboxamide]

same assay, conditions: bin: greater than 1 μM

IC50 | Compound
> 1000 nM | CC(C)CC(=O)NC(C)c1ccc(C(=O)NO)cc1 (stereo not drawn) [Compound I-111, N-hydroxy-4-{1-[(3-methylbutanoyl)amino]ethyl}benzamide]
> 1000 nM | CC(NC(=O)Cc1c(F)cccc1Cl)c1ccc(C(=O)NO)cc1 (stereo not drawn) [Compound I-24, 4-(1-{[(2-chloro-6-fluorophenyl)acetyl]amino}ethyl)-N-hydroxybenzamide]
> 1000 nM | CC(NC(=O)Cc1ccc(F)cc1F)c1ccc(C(=O)NO)cc1 (stereo not drawn) [Compound I-402, 4-(1-{[(2,4-difluorophenyl)acetyl]amino}ethyl)-N-hydroxybenzamide]
> 1000 nM | CC(NC(=O)c1cc2oc(-c3ccc(C(C)(C)C)cc3)cc2n1C)c1cccc(C(=O)NO)c1 (stereo not drawn) [Compound I-324, 2-(4-tert-butylphenyl)-N-(1-{3-[(hydroxyamino)carbonyl]phenyl}ethyl)-4-methyl-4H-furo[3,2-b]pyrrole-5-carboxamide]
> 1000 nM | CC(NC(=O)c1cc(Cl)c(Cl)n1C)c1cccc(C(=O)NO)c1 (stereo not drawn) [Compound I-39, 4,5-dichloro-N-(1-{3-[(hydroxyamino)carbonyl]phenyl}ethyl)-1-methyl-1H-pyrrole-2-carboxamide]
> 1000 nM | CC(NC(=O)CC1CCOCC1)c1ccc(C(=O)NO)cc1 (stereo not drawn) [Compound I-313, N-hydroxy-4-{1-[(tetrahydro-2H-pyran-4-ylacetyl)amino]ethyl}benzamide]

same assay, conditions: purified human HDAC6, substrate Ac-Arg-Gly-Lys(Ac)-AMC, 1 hour at 30° C.; reported as bins

Compound | IC50
C[C@@H](NC(=O)C12CC3CC(CC(C3)C1)C2)c1ccc(C(=O)NO)cc1 [Compound I-209, N-((1R)-1-{4-[(hydroxyamino)carbonyl]phenyl}ethyl)adamantane-1-carboxamide] | < 100 nM
C[C@@H](NC(=O)Nc1ccc2c(c1)CCO2)c1ccc(C(=O)NO)cc1 [Compound I-528, 4-((1R)-1-{[(2,3-dihydro-1-benzofuran-5-ylamino)carbonyl]amino}ethyl)-N-hydroxybenzamide] | < 100 nM
Cc1cc(C(=O)NC(C)c2ccc(C(=O)NO)cc2)n(C)n1 (stereo not drawn) [Compound I-288, N-(1-{4-[(hydroxyamino)carbonyl]phenyl}ethyl)-1,3-dimethyl-1H-pyrazole-5-carboxamide] | < 100 nM
CC(NC(=O)C1CC1)c1ccc(C(=O)NO)cc1 (stereo not drawn) [Compound I-239, 4-{1-[(cyclopropylcarbonyl)amino]ethyl}-N-hydroxybenzamide] | 100 to 500 nM
CC(NS(=O)(=O)c1ccc(Cl)cc1)c1ccc(C(=O)NO)cc1 (stereo not drawn) [Compound I-302, 4-(1-{[(4-chlorophenyl)sulfonyl]amino}ethyl)-N-hydroxybenzamide] | 100 to 500 nM
Cc1cc(C)c(S(=O)(=O)NC(C)c2ccc(C(=O)NO)cc2)c(C)c1 (stereo not drawn) [Compound I-176, N-hydroxy-4-{1-[(mesitylsulfonyl)amino]ethyl}benzamide] | 100 to 500 nM
CC(C)(C)C(NC(=O)c1cccs1)c1ccc(C(=O)NO)cc1 (stereo not drawn) [Compound I-215, N-(1-{4-[(hydroxyamino)carbonyl]phenyl}-2,2-dimethylpropyl)thiophene-2-carboxamide] | 100 to 500 nM
CC(NS(=O)(=O)c1cccc2cccnc12)c1ccc(C(=O)NO)cc1 (stereo not drawn) [Compound I-363, N-hydroxy-4-{1-[(quinolin-8-ylsulfonyl)amino]ethyl}benzamide] | 100 to 500 nM
CC(NS(=O)(=O)c1ccc(-c2cnco2)cc1)c1ccc(C(=O)NO)cc1 (stereo not drawn) [Compound I-178, N-hydroxy-4-[1-({[4-(1,3-oxazol-5-yl)phenyl]sulfonyl}amino)ethyl]benzamide] | 100 to 500 nM
C[C@H](NC(=O)N[C@H](C)c1ccc(C(=O)NO)cc1)c1ccccc1 [Compound I-513, N-hydroxy-4-[(1R)-1-({[(1S)-1-phenylethyl]carbamoyl}amino)ethyl]benzamide] | < 100 nM
C[C@@H](NCC1(C)CCCCC1)c1ccc(C(=O)NO)cc1 [Compound I-489, N-hydroxy-4-((1R)-1-{[(1-methylcyclohexyl)methyl]amino}ethyl)benzamide] | 100 to 500 nM
Cn1cccc1C(=O)NC(c1ccc(C(=O)NO)cc1)C(C)(C)C (stereo not drawn) [Compound I-133, N-(1-{4-[(hydroxyamino)carbonyl]phenyl}-2,2-dimethylpropyl)-1-methyl-1H-pyrrole-2-carboxamide] | 100 to 500 nM
C[C@@H](NC(=O)c1cc2ccccc2s1)c1cccc(C(=O)NO)c1 [Compound I-321, N-((1R)-1-{3-[(hydroxyamino)carbonyl]phenyl}ethyl)-1-benzothiophene-2-carboxamide] | < 100 nM
CC(NC(=O)c1cn2cc(Cl)ccc2n1)c1ccc(C(=O)NO)cc1 (stereo not drawn) [Compound I-35, 6-chloro-N-(1-{4-[(hydroxyamino)carbonyl]phenyl}ethyl)imidazo[1,2-a]pyridine-2-carboxamide] | < 100 nM
O=C(NO)c1ccc([C@H](NC(=O)c2ccc(-c3ccccc3)cc2)C(F)(F)F)cc1 [Compound I-296, N-((1S)-2,2,2-trifluoro-1-{4-[(hydroxyamino)carbonyl]phenyl}ethyl)biphenyl-4-carboxamide] | < 100 nM
Cc1cccc(NC(=O)NC(C)c2ccc(C(=O)NO)cc2)c1C (stereo not drawn) [Compound I-175, 4-[1-({[(2,3-dimethylphenyl)amino]carbonyl}amino)ethyl]-N-hydroxybenzamide] | < 100 nM

Other lines, results leading:

IC50 | Compound
< 100 nM | CC(C)[C@@H](NC(=O)N[C@@H](C)c1ccccc1)c1ccc(C(=O)NO)cc1 [Compound I-516, N-hydroxy-4-{(1R)-2-methyl-1-[({[(1S)-1-phenylethyl]amino}carbonyl)amino]propyl}benzamide]
< 100 nM | CC(C)[C@@H](NC(=O)c1cccn1C)c1ccc(C(=O)NO)cc1 [Compound I-65, N-((1R)-1-{4-[(hydroxyamino)carbonyl]phenyl}-2-methylpropyl)-1-methyl-1H-pyrrole-2-carboxamide]
< 100 nM | CC(C)[C@@H](NC(=O)C(C)(C)C)c1ccc(C(=O)NO)cc1 [Compound I-287, 4-{(1R)-1-[(2,2-dimethylpropanoyl)amino]-2-methylpropyl}-N-hydroxybenzamide]
< 100 nM | CC(C)C(NC(=O)c1cc2cc(Cl)ccc2[nH]1)c1ccc(C(=O)NO)cc1 (stereo not drawn) [Compound I-247, 5-chloro-N-(1-{4-[(hydroxyamino)carbonyl]phenyl}-2-methylpropyl)-1H-indole-2-carboxamide]
< 100 nM | CC(C)[C@@H](NC(=O)c1ccc(-c2ccccc2)cc1)c1ccc(C(=O)NO)cc1 [Compound I-341, N-((1R)-1-{4-[(hydroxyamino)carbonyl]phenyl}-2-methylpropyl)biphenyl-4-carboxamide]
< 100 nM | CC(C)C(NC(=O)c1cc2cc(Cl)ccc2o1)c1ccc(C(=O)NO)cc1 (stereo not drawn) [Compound I-130, 5-chloro-N-(1-{4-[(hydroxyamino)carbonyl]phenyl}-2-methylpropyl)-1-benzofuran-2-carboxamide]
< 100 nM | Cc1cc(C)cc(NC(=O)NC(C)c2ccc(C(=O)NO)cc2)c1 (stereo not drawn) [Compound I-397, 4-[1-({[(3,5-dimethylphenyl)amino]carbonyl}amino)ethyl]-N-hydroxybenzamide]
< 100 nM | COc1ccc(C(=O)N[C@@H](c2ccc(C(=O)NO)cc2)C(F)(F)F)cc1 [Compound I-122, 4-methoxy-N-((1S)-2,2,2-trifluoro-1-{4-[(hydroxyamino)carbonyl]phenyl}ethyl)benzamide]
100 to 500 nM | CC(C)C(NC(=O)c1cc(C(F)(F)F)cc(C(F)(F)F)c1)c1ccc(C(=O)NO)cc1 (stereo not drawn) [Compound I-173, N-(1-{4-[(hydroxyamino)carbonyl]phenyl}-2-methylpropyl)-3,5-bis(trifluoromethyl)benzamide]
< 100 nM | CC(C)(C)C(NC(=O)c1cc2ccccc2[nH]1)c1ccc(C(=O)NO)cc1 (stereo not drawn) [Compound I-127, N-(1-{4-[(hydroxyamino)carbonyl]phenyl}-2,2-dimethylpropyl)-1H-indole-2-carboxamide]

Source: US9382197B2, “Substituted hydroxamic acids and uses thereof” (Millennium Pharmaceuticals, Inc., priority 2010, dated 2016)
